# Key:
# [1] = tested on: CHIP (siTET2) myeloid cells; experiment: Synthetic lethality screen of a CVD drug library, alamarBlue Cell Viability assay, CHIP cells; type: cell-based; conditions: THP-1 cells with TET2 siRNA knockdown; drugs 100 µM, 48 hours; compared with Vehicle
# Protocol: (§1) The established disease model can subsequently be used for drug screening. Thus, a synthetic lethality screening of a CVD (cardiovascular disease) drug library was performed, treating CHIP (siTET2) or healthy (siScr) myeloid cells.
# (§2) THP-1 cells were purchased from DSMZ (ACC 16) and maintained in RPMI-1640 (Gibco) +10% Fetal Calf Serum, 1% Penicillin/Streptomycin, 1% Glutamine, 0.05 mM 2-Mercaptoethanol.
# (§3) THP-1 cells were differentiated from monocytes to macrophages by supplementing the media 100 ng/mL PMA and culturing for 48 h, and then in PMA-free media for another 24 h. For routine culturing, cells were maintained at 37°C, 5% CO2, 20% O2. In cardiopathologic culturing, both THP1 cells and organoids were maintained hypoxic conditions at 37°C, 5% CO2, 1% O2.
# (§4) Transfection of THP-1 cells with siRNA purchased as ON-TARGETplus pools from Horizon Discovery (TET2 siRNA pool containing: ACAAGAAAGUAGAGGGUAU (SEQ ID NO 001), ACACCUAGUUUCAGAGAAU (SEQ ID NO 002), CCUCAGAAUAAUUGUGUGA (SEQ ID NO 003), CAGCAAAGGUACUUGAUAC (SEQ ID NO 004); Control siRNA pool containing: UGGUUUACAUGUUGUGUGA (SEQ ID NO 005), UGGUUUACAUGUUUUCCUA (SEQ ID NO 006)).
# (§5) Working solution of 50µM siRNA was prepared in siRNA Buffer (ThermoFisher). 2 µL of 50µM siRNA were mixed with 500 µL OptiMEM and 6.25µL LTX Reagent PLUS (ThermoFisher) and incubated at room temperature (RT) for 15 min. 6.25 µL Lipofectamine LTX was added, mixed, and incubated for 30 min at RT. 500 µL were then added to the target culture and the culture was incubated at 37°C, 5% CO2. Passaging and/or media change was performed after 24 h.
# (§6) THP-1 monocytes and macrophages were cocultured overnight (18 h) with siRNA. They were then washed with PBS and used for either TET2 knockdown quality control (as described below) or for the drug screening. For the screening, cells were transferred from tissue culture flasks to 384-well plates. Drugs were added to a final concentration of 100 µM and incubated for 48 hours. An alamarBlue Cell Viability assay (Invitrogen) with a 4 h incubation was performed according to the manufacturer's instructions.
# [2] = tested on: healthy (siScr) myeloid cells; experiment: Synthetic lethality screen of a CVD drug library, alamarBlue Cell Viability assay, healthy cells; type: cell-based; conditions: THP-1 cells with control siRNA; drugs 100 µM, 48 hours; compared with Vehicle
# Protocol: as §1, §2, §3, §4, §5, §6
# [3] = tested on: CHIP (siTET2) myeloid cells; experiment: Trypan Blue Assay (cell death), CHIP cells; type: cell-based
# [4] = tested on: healthy (siScr) myeloid cells; experiment: Trypan Blue Assay (cell death), healthy cells; type: cell-based
# [5] = tested on: CHIP (siTET2) myeloid cells; experiment: Cl. Caspase Assay (apoptosis), CHIP cells; type: cell-based
# [6] = tested on: healthy (siScr) myeloid cells; experiment: Cl. Caspase Assay (apoptosis), healthy cells; type: cell-based
# [7] = tested on: CHIP-infiltrated cardiac organoids (siTET2); experiment: cTNT assay (Human Cardiac Troponin T ELISA) in organoid coculture; type: cell-based; conditions: siTET2 organoids treated vs Vehicle; healthy = siScr; 3 days of culturing
# Protocol: The cTNT assay was performed using the Human Cardiac Troponin T ELISA® Kit (ab223860, Abcam) following the manufacturer's instructions.
# [8] = tested on: CHIP-infiltrated cardiac organoids (siTET2); experiment: Cardiomyocyte apoptosis in cardiac organoids (Cleaved Caspase staining colocalized with α-Actinin); type: cell-based, human; conditions: siTET2 organoids treated vs Vehicle; healthy = siScr
# Description: To assess the CM death, the inventors used cleaved caspase staining which labels apoptotic cells. […] The increase in CM death in the TET2 KD group is further verified by an increase in cardiac troponin T (cTNT), a prognostic cardiac damage clinical biomarker (* p <0.05).
# [9] = tested on: cardiac organoids infiltrated with CHIP myeloid cells; experiment: Gene expression (RNA levels of markers) in cardiac organoids infiltrated with CHIP myeloid cells; type: cell-based, human; conditions: treated vs Vehicle; normalized to healthy state = 1.0
# Protocol: (§7) Macrophages were differentiated from THP1 monocytes, then treated with siRNAs (18 h incubation), washed, and labeled with Qtracker™ 655 Cell Labeling Kit (ThermoFisher) for 1 h according to the manufacturer's instructions, washed with PBS, and dissociated with 0.05% trypsin. Macrophages were then added to organoids and cultured at 37°C, 5% CO2, and 1%O2. Cultures were maintained in 96-well U-bottom plates.
# (§8) Immunostaining, RNA extraction and cTNT assays were run after 3 days of culturing.
# [10] = tested on: CHIP-infiltrated cardiac organoids (siTET2); experiment: Myeloid cell infiltration into cardiac organoids (Qtracker staining, coculture); conditions: siTET2 organoids treated vs Vehicle; baseline siScr Vehicle; hypoxic coculture, 3 days
# Protocol: These MCs were utilized in the coculturing system with self-organized human cardiac organoids, where they were tracked using a Qtracker stain.
# as §7, §8
# After an overnight PFA fixation, the organoids were washed with PBS, then treated with 1% TritonX-100 (in PBS) for 45 minutes. Afterwards, they are incubated with PBS for 10 minutes for washing. 5% horse serum (in PBS) is added to block and incubated for 45 minutes (RT) Primary antibody in 2% horse serum + 0.0002% TritonX-100 was added and the samples were incubated at 4°C overnight. Primary antibodies: Anti-Sarcomeric-actinin (Ab68167, anti-human), Anti-Cleaved Caspase-3 (Ab32042, anti-human). Samples were washed with PBS + 0.002% TritonX-100 6x10min. Secondary antibodies and additional stains were added and incubated for 4h at RT: AlexaFlour 488 (Invitrogen, A11070), AlexaFlour 555 (Invitrogen, A21425), DAPI, Qtracker labelling 655 (Invitrogen, Q25021 MP). Samples were washed by incubating with PBS+0.002%TritonX-100 for 2-3 hours at RT), and mounted on Superfrost Plus Adhesion Slides (ThermoFisher) sing transparent polish to seal the slide sides to the coverslips (Roth). Samples were imaged using SP8 Lightning Leica Confocal Microscope, using a 40x objective (for a total of 800x and 300x magnification with zoom factors and eye lenses).
Molecule,viability of CHIP myeloid cells (siTET2) [1],viability of healthy (siScr) cells [2],levels of cell death of CHIP myeloid cells (Trypan Blue Assay) [3],cell death of healthy (siScr) cells (Trypan Blue Assay) [4],apoptosis of CHIP myeloid cells (CI. Caspase Assay) [5],apoptosis of healthy (siScr) cells (CI. Caspase Assay) [6],levels of the prognostic marker cTNT [7],cardiomyocyte apoptosis levels (areas of Cleaved Caspase staining) [8],"RNA levels of myeloid, inflammatory, heart failure and fibrotic markers [9]",infiltration of myeloid cells into organoids (Qtracker-stained area) [10]
"COC(=O)[C@H](c1ccccc1Cl)N1CCc2sccc2C1 [Clopidogrel, clopidogrel]",selectively inhibit the viability of CHIP myeloid cells (siTET2),without compromising the viability of healthy (siScr) cells,increase the levels of cell death of CHIP myeloid cells,without inflicting harm on the healthy (siScr) cells,increase the levels of cell death of CHIP myeloid cells (Trypan Blue Assay) and apoptosis in particular,without inflicting harm on the healthy (siScr) cells,decreased back to healthy levels,decreased areas of Cleaved Caspase staining back towards healthy levels,rescued upon treatment with the 3 aforementioned drugs back down towards healthy levels (≤1.0),decreased levels of Qtracker-stained area upon treatment of siTET2 cells back to the baseline healthy levels
C[C@H]1O[C@@H](O[C@H]2[C@@H](O)C[C@H](O[C@H]3[C@@H](O)C[C@H](O[C@H]4CC[C@@]5(C)[C@H](CC[C@@H]6[C@@H]5CC[C@]5(C)[C@@H](C7=CC(=O)OC7)CC[C@]65O)C4)O[C@@H]3C)O[C@@H]2C)C[C@H](O)[C@@H]1O [Digitoxin],only Ginsenoside Rb1 was found to do so significantly,–,–,–,–,–,–,–,–,–
CC(C)=CCC[C@](C)(O[C@@H]1O[C@H](CO[C@@H]2O[C@H](CO)[C@@H](O)[C@H](O)[C@H]2O)[C@@H](O)[C@H](O)[C@H]1O)[C@H]1CC[C@]2(C)[C@@H]1[C@H](O)C[C@@H]1[C@@]3(C)CC[C@H](O[C@@H]4O[C@H](CO)[C@@H](O)[C@H](O)[C@H]4O[C@@H]4O[C@H](CO)[C@@H](O)[C@H](O)[C@H]4O)C(C)(C)[C@@H]3CC[C@]12C [Ginsenoside Rb1],found to do so significantly,also decreases the viability of healthy cells,–,–,–,–,–,–,–,–
"CC(=O)O[C@H]1C[C@H](O[C@H]2[C@@H](O)C[C@H](O[C@H]3[C@@H](O)C[C@H](O[C@H]4CC[C@@]5(C)[C@H](CC[C@@H]6[C@@H]5C[C@@H](O)[C@]5(C)[C@@H](C7=CC(=O)OC7)CC[C@]65O)C4)O[C@@H]3C)O[C@@H]2C)O[C@H](C)[C@H]1O[C@@H]1O[C@H](CO)[C@@H](O)[C@H](O)[C@H]1O [Lanatoside C, lanatoside C]",selectively inhibit the viability of CHIP myeloid cells (siTET2),without compromising the viability of healthy (siScr) cells,increase the levels of cell death of CHIP myeloid cells,without inflicting harm on the healthy (siScr) cells,increase the levels of cell death of CHIP myeloid cells (Trypan Blue Assay) and apoptosis in particular,without inflicting harm on the healthy (siScr) cells,decreased back to healthy levels,decreased areas of Cleaved Caspase staining back towards healthy levels,rescued upon treatment with the 3 aforementioned drugs back down towards healthy levels (≤1.0),decreased levels of Qtracker-stained area upon treatment of siTET2 cells back to the baseline healthy levels
COc1cc(Nc2ncc(F)c(Nc3ccc4c(n3)NC(=O)C(C)(C)O4)n2)cc(OC)c1OC [R406],selectively inhibit the viability of CHIP myeloid cells (siTET2),without compromising the viability of healthy (siScr) cells,increase the levels of cell death of CHIP myeloid cells,without inflicting harm on the healthy (siScr) cells,increase the levels of cell death of CHIP myeloid cells (Trypan Blue Assay) and apoptosis in particular,without inflicting harm on the healthy (siScr) cells,decreased back to healthy levels,decreased areas of Cleaved Caspase staining back towards healthy levels,rescued upon treatment with the 3 aforementioned drugs back down towards healthy levels (≤1.0),decreased levels of Qtracker-stained area upon treatment of siTET2 cells back to the baseline healthy levels
CCCSc1nc(N[C@@H]2C[C@H]2c2ccc(F)c(F)c2)c2nnn([C@@H]3C[C@H](OCCO)[C@@H](O)[C@H]3O)c2n1 [Ticagrelor],–,also decrease the viability of healthy cells,–,–,–,–,–,–,–,–
CCCCC[C@H](O)CC[C@@H]1[C@H]2Cc3cccc(OCC(=O)O)c3C[C@H]2C[C@H]1O [Treprostinil Sodium],–,also decrease the viability of healthy cells,–,–,–,–,–,–,–,–
CC(=O)Oc1cc(C(F)(F)F)ccc1C(=O)O [Triflusal],–,also decrease the viability of healthy cells,–,–,–,–,–,–,–,–
Escin,only Ginsenoside Rb1 was found to do so significantly,–,–,–,–,–,–,–,–,–
